Assay results published in patent US20230312744A1, “Modulatory Substance of Tumor Immune Microenvironment, and Preventive, Diagnostic and/or Therapeutic Utilization of the Same” (The University Of Tokyo, priority 2020, published 2023).

T1: mouse TCTP (mouse, UniProt P63028 1-172)
T1 construct: also called TCTP in the whole cell lysate of TCTP WT SL4 cells; TCTP released from dead SL4 cells
T1 sequence (looked up): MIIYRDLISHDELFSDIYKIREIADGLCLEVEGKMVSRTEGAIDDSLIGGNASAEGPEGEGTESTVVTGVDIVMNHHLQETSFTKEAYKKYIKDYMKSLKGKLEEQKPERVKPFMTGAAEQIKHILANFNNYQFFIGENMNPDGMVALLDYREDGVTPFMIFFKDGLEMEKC


How the values were obtained:
[1] = system: IL-2ss-TCTP tumors; test: Proliferation assay of subcutaneously transplanted IL-2ss-TCTP SL4 tumor in C57BL/6 mice; type: in vivo, mouse; settings: 50 mg/kg orally, FIG. 11(i)
Description: In FIG. 11(a), PECs (2×10^5 cells) or SL4 cells (1×10^5 cells) were stimulated with recombinant TCTP for 2 hours. Thereafter, Cxcl1 mRNA was quantified by qRT-PCR (n=3). In FIG. 11(b), the Cxcl1 mRNA of TCTP WO SL4 cells and TCTP KO SL4 cells was quantified by RT-qPCR. n=3. In FIG. 11(c), SL4 cells (2×10^5 cells) were subcutaneously transplanted into C57BL/6 mice (n=3). On Day 21 after the transplantation, single cell suspensions were prepared from tumors. Thereafter, various immune cells (PMN-MDSCs, M-MDSCs, TAMS, DCs, T cells, B cells, and NK cells) were separated, and the Cxcl2 mRNA of individual cells was then quantified by qRT-PCR. In FIG. 11(d), PECs (2×10^5 cells) were stimulated with recombinant IL-la for 2 hours. Thereafter, Cxcl1 mRNA was quantified by qRT-PCR (n=3). […] HEK293T cells transiently expressing TLR2-YFP and Flag-TCTP were subjected to immunoprecipitation with an anti-GFP antibody, and thereafter, were analyzed with an anti-Flag antibody (upper view), and TLR2 and TCTP in the whole cell lysate were detected (lower view). […] The tumor volume was measured over time. In FIG. 11(i), IL-2ss-TCTP SL4 cells (2×10^5 cells) were subcutaneously transplanted into C57BL/6 mice, and the tumor volume was then measured over time. […]

[2] = target: T1, mouse TCTP; test: immunoblotting of whole cell lysates of TCTP WT and TCTP KO SL4 cells

Row | Molecule | proliferation of IL-2ss-TCTP tumors [1] | binding result [2]
1 | COc1cccc(C=O)c1O [O -vanillin, O-vanillin] | suppressed | 
2 | 55F3 antibody (antibody, V domains shown, also called 55F3E5; 55F3E5 (55F3) monoclonal antibody) VH: DVQLQESGPGLVKPSQSLSLTCTATGYSIASDYAWNWIRQFPGNKLEWMGYINYSGSTGYNPSLKSRISITRDTSKNQFFLQLNSVTTEDTATYYCARFEAGYWGQGTTLTVSS VL: DIKMTQSPSSMSASLGERVTITCKASQDINRYLSWFQQKPGKSPKTLIYRANRLVDGVPSRFSGSGSGQDYSLTISSLEYGDMGIYYCLQYNEFPLTFGAGTKLELKR |  | binds
